In ChEMBL document CHEMBL1129981 (J Med Chem, 1997):

Legend:
[1] = target: Sodium-dependent serotonin transporter (Rattus norvegicus, UniProt P31652); test: Inhibition of uptake of [3H]5-HT in synaptosomes from rat cortex; assay type: functional, subcellular, Brain
[2] = target: T1, Adrenergic receptor alpha-2 (Rattus norvegicus, UniProt P22086+P19328+P22909); test: Ability to displace [3H]rauwolscine from Alpha-2 adrenergic receptor in rat cortical membranes; assay type: cell membranes
T1 sequence (P22086 whole entry): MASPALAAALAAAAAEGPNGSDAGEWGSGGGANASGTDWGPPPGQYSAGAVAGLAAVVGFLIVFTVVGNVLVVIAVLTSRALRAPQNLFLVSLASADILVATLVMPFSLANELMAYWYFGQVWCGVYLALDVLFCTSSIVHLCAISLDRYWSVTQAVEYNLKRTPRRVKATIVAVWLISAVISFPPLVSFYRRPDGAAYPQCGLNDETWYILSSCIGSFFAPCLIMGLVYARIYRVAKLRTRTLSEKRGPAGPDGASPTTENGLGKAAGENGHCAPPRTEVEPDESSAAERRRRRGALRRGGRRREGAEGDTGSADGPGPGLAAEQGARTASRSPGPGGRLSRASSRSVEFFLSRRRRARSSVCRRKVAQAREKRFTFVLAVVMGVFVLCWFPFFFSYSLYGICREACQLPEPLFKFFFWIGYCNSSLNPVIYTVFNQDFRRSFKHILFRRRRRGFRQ
T1 sequence (P19328 whole entry): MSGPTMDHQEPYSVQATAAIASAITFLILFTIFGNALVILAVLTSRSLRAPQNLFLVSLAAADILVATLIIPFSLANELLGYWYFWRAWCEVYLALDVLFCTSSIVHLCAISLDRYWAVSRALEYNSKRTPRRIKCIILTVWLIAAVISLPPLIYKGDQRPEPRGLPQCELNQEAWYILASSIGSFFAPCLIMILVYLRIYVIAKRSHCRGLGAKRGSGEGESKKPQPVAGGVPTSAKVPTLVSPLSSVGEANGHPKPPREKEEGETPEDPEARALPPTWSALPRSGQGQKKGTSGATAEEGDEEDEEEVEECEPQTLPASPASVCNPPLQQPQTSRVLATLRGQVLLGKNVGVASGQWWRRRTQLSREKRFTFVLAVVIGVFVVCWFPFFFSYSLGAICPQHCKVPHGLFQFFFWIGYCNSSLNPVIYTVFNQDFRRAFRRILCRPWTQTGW
T1 sequence (P22909 whole entry): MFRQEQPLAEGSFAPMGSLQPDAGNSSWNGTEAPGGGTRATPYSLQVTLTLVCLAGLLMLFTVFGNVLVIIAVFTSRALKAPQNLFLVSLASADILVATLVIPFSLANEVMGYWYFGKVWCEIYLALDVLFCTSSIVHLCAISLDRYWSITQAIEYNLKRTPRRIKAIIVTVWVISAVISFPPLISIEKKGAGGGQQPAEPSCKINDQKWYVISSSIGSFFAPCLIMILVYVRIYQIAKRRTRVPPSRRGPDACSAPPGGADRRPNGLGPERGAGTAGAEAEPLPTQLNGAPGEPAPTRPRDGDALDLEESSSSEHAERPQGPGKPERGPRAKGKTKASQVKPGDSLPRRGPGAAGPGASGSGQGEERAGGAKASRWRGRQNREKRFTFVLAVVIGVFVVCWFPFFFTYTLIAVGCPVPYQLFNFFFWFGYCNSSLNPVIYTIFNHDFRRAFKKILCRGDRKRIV

Sodium-dependent serotonin transporter, sequence (P31652 whole entry): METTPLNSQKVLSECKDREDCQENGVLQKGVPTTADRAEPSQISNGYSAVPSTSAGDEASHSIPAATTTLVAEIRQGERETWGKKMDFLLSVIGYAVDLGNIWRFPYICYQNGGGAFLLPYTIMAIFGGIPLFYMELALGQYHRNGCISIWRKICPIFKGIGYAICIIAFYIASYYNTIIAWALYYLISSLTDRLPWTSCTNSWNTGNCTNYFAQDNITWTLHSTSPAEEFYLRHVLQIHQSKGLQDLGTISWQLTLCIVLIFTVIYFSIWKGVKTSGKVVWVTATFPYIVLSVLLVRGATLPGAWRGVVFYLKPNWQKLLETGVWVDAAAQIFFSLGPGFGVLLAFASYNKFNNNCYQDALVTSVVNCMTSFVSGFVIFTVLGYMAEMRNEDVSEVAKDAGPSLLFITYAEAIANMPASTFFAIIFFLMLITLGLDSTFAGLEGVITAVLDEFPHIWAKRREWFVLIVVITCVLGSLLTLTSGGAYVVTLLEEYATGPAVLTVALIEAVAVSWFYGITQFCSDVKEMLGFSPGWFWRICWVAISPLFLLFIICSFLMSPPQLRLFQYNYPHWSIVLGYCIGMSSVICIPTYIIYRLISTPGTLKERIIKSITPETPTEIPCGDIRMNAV

COc1ccc2c(c1)C(CN(C)CCc1ccc3c(c1)OCO3)CCC2 (stereo not drawn)
IC50 [1]: 1.42 µM
Ki [2]: 0.0575 µM

CN(CCc1ccc2c(c1)OCO2)C[C@@H]1CCCc2c1ccc1c2OCC1
IC50 [1]: 0.0267 µM
Ki [2]: 0.00557 µM

COc1cccc2c1CCC[C@H]2CN(C)CCc1ccc2c(c1)CCS2(=O)=O
IC50 [1]: 0.0337 µM
Ki [2]: 0.00467 µM

COc1cccc2c1C(CN(C)CCc1ccc3c(c1)OCO3)CCC2 (stereo not drawn)
IC50 [1]: 1.43 µM
Ki [2]: 0.00288 µM

CN(CCc1ccc2c(c1)OCO2)C[C@@H]1CCCc2c1ccc1ccoc21
IC50 [1]: 0.101 µM
Ki [2]: 0.00488 µM

COc1cccc2c1CCC[C@H]2CN(C)CCc1ccc2occc2c1
IC50 [1]: 0.0176 µM
Ki [2]: 0.00278 µM

COc1cccc2c1CCC[C@H]2CN(C)CCc1ccc2nc(O)oc2c1
IC50 [1]: 0.0194 µM
Ki [2]: 0.00451 µM

COc1cccc2c1CCC[C@H]2CN(C)CCc1ccc2c(c1)C=CS2(=O)=O
IC50 [1]: 0.051 µM
Ki [2]: 0.00482 µM

COc1cccc2c1CCC[C@H]2CN(C)CCc1ccc2c(c1)CCN2S(C)(=O)=O
IC50 [1]: 0.035 µM
Ki [2]: 0.00462 µM

CCN(CCc1ccc2c(c1)OCO2)C[C@@H]1CCCc2c(OC)cccc21
IC50 [1]: 0.158 µM
Ki [2]: 0.00573 µM

CN(CCc1ccc2c(c1)OCO2)CC1CCCc2c(NS(C)(=O)=O)cccc21 (stereo not drawn)
IC50 [1]: 0.658 µM
Ki [2]: 0.019 µM

COc1cccc2c1CCC[C@H]2CN(C)CCc1ccc2nc(C)sc2c1
IC50 [1]: 0.0867 µM
Ki [2]: 0.00212 µM

CN(CCc1ccc2c(c1)OCO2)C[C@@H]1CC[C@H]2CCOc3cccc1c32
IC50 [1]: 0.436 µM
Ki [2]: 0.0941 µM

COc1cccc2c1CCC[C@H]2CN(C)CCc1ccc2c(c1)CCS2
IC50 [1]: 0.0243 µM
Ki [2]: 0.00265 µM

COc1cccc2c1CCC[C@H]2CN(C)CCc1ccc2nc(C)oc2c1
IC50 [1]: 0.0428 µM
Ki [2]: 0.00927 µM

COc1cccc2c1CCC[C@H]2CN(C)CCc1ccc2c(c1)CCC2
IC50 [1]: 0.0205 µM
Ki [2]: 0.00899 µM

COc1cccc2c1CCC[C@H]2CN(C)CCc1ccc2c(c1)CN(S(C)(=O)=O)C2
IC50 [1]: 0.00581 µM
Ki [2]: 0.00533 µM

COc1cccc2c1CCC[C@H]2CN(C)CCc1ccc2ncccc2c1
IC50 [1]: 0.0467 µM
Ki [2]: 0.00391 µM

COc1cccc2c1CCC[C@H]2CN(C)CCc1ccc2ncoc2c1
IC50 [1]: 0.00525 µM
Ki [2]: 0.00122 µM

CN(CCc1ccc2c(c1)OCO2)CC1CCCc2ccccc21 (stereo not drawn)
IC50 [1]: 1.09 µM
Ki [2]: 0.00819 µM

COc1cccc2c1CCC[C@H]2CN(C)CCc1ccc2ccncc2c1
IC50 [1]: 0.0539 µM
Ki [2]: 0.00607 µM

COc1ccc2c(c1)CCCC2CN(C)CCc1ccc2c(c1)OCO2 (stereo not drawn)
IC50 [1]: 0.469 µM
Ki [2]: 0.0235 µM

COc1cccc2c1CCC[C@H]2CN(C)CCc1ccc2c(c1)COC2
IC50 [1]: 0.229 µM
Ki [2]: 0.00264 µM

COc1cccc2c1CCC[C@@H]2CN(C)CCc1ccc2c(c1)OCO2
IC50 [1]: 1.31 µM
Ki [2]: 0.0886 µM

COc1cccc2c1CCC[C@H]2CN(CCc1ccc2c(c1)OCO2)CC1CC1
Ki [2]: 0.0543 µM

COc1cccc2c1CCC[C@H]2CN(C)CCc1ccc2c(c1)N(S(C)(=O)=O)CC2
IC50 [1]: 0.0389 µM
Ki [2]: 0.00535 µM

COc1cccc2c1CCC[C@H]2CN(C)CCc1ccc2oc(O)nc2c1
IC50 [1]: 0.0683 µM
Ki [2]: 0.0075 µM

COc1cccc2c1CCC[C@H]2CN(C)CCc1ccc2nc(N)sc2c1
IC50 [1]: 0.00947 µM
Ki [2]: 0.00567 µM

COc1cccc2c1CCC[C@H]2CN(C)CCc1ccc2c(c1)NCC2
IC50 [1]: 0.0791 µM
Ki [2]: 0.0117 µM

COc1cccc2c1CCC[C@H]2CN(C)CCc1ccc2c(c1)OCC2
IC50 [1]: 0.0181 µM
Ki [2]: 0.00188 µM

COc1cccc2c1CCC[C@H]2CN(CCc1ccc2c(c1)OCO2)C1CC1
Ki [2]: 0.266 µM

COc1cccc2c1CCC[C@H]2CN(C)CCc1ccc2ncsc2c1
IC50 [1]: 0.00894 µM
Ki [2]: 0.00273 µM

COc1cccc2c1CCC[C@H]2CN(C)CCc1ccc2c(c1)CCN2
IC50 [1]: 0.0318 µM
Ki [2]: 0.00342 µM

CN(CCc1ccc2c(c1)OCO2)CC1CCCc2c1ccc1c2OCO1 (stereo not drawn)
IC50 [1]: 0.0603 µM
Ki [2]: 0.011 µM

COc1ccc2c(c1OC)CCC[C@H]2CN(C)CCc1ccc2c(c1)OCO2
IC50 [1]: 0.757 µM
Ki [2]: 0.0155 µM

COc1cccc2c1CCC[C@H]2CN(C)CCc1ccc2sccc2c1
IC50 [1]: 0.0528 µM
Ki [2]: 0.0179 µM

COc1cccc2c1CCC[C@H]2CN(C)CCc1ccc2c(c1)CN(S(=O)(=O)C(F)(F)F)C2
IC50 [1]: 0.0598 µM
Ki [2]: 0.142 µM

COc1cccc2c1CCC[C@H]2CN(C)CCc1ccc2nc(Cl)sc2c1
IC50 [1]: 0.0382 µM
Ki [2]: 0.00545 µM

COc1cccc2c1CCC[C@H]2CN(C)CCc1ccc2c(c1)CNC2
IC50 [1]: 0.0116 µM
Ki [2]: 0.00599 µM

CN(CCc1ccc2c(c1)OCO2)C[C@@H]1CC[C@@H]2CCOc3cccc1c32
IC50 [1]: 0.862 µM
Ki [2]: 0.113 µM

COc1cccc2c1CCC[C@H]2CN(C)CCc1ccc2c(c1)CCN2S(=O)(=O)C(F)(F)F
IC50 [1]: 0.132 µM
Ki [2]: 0.158 µM

COc1cccc2c1CCC[C@H]2CN(C)CCc1ccc2c(c1)OCO2
IC50 [1]: 0.0127 µM
Ki [2]: 0.0017 µM

C#CCN(CCc1ccc2c(c1)OCO2)C[C@@H]1CCCc2c(OC)cccc21
Ki [2]: 0.184 µM

COc1cccc2c1CCCC2CN(C)CCc1ccc2c(c1)OCO2 (stereo not drawn)
IC50 [1]: 0.0206 µM
Ki [2]: 0.00671 µM

CN(CCc1ccc2c(c1)OCO2)CC1CCCc2c(O)cccc21 (stereo not drawn)
IC50 [1]: 1.24 µM
Ki [2]: 0.00754 µM

CSc1cccc2c1CCCC2CN(C)CCc1ccc2c(c1)OCO2 (stereo not drawn)
IC50 [1]: 0.117 µM
Ki [2]: 0.021 µM

COc1cccc2c1CCC[C@H]2CN(C)CCc1ccc2c(c1)CC(=O)N2
IC50 [1]: 0.0222 µM
Ki [2]: 0.00491 µM

COc1cccc2c1CCC[C@H]2CN(C)CCc1ccc2[nH]c(O)nc2c1
IC50 [1]: 0.0163 µM
Ki [2]: 0.0108 µM

CCOc1cccc2c1CCC[C@H]2CN(C)CCc1ccc2c(c1)OCO2
IC50 [1]: 0.198 µM
Ki [2]: 0.00186 µM

COc1cccc2c1CCC[C@H]2CN(C)CCc1ccc2[nH]cnc2c1
IC50 [1]: 0.0113 µM
Ki [2]: 0.00521 µM

COc1cccc2c1CCC[C@H]2CN(C)CCc1ccc2c(c1)CCO2
IC50 [1]: 0.0146 µM
Ki [2]: 0.00176 µM

COc1cccc2c1CCC[C@H]2CN(C)CCc1ccc2nccnc2c1
IC50 [1]: 0.0444 µM
Ki [2]: 0.00181 µM

COc1cccc2c1CCC[C@H]2CN(C)CCc1ccc2ocnc2c1
IC50 [1]: 0.0167 µM
Ki [2]: 0.00177 µM

COc1cccc2c1CCC[C@H]2CN(C)CCc1ccc2cccnc2c1
IC50 [1]: 0.0181 µM
Ki [2]: 0.00679 µM

COc1cccc2c1CCC[C@H]2CNCCc1ccc2c(c1)OCO2
IC50 [1]: 0.414 µM
Ki [2]: 0.0882 µM

COc1cccc2c1CCC[C@H]2CN(C)CCc1ccc2c(c1)CS(=O)(=O)C2
IC50 [1]: 0.00667 µM
Ki [2]: 0.00178 µM

COc1cccc2c1CCC[C@H]2CN(C)CCc1ccc2c(c1)N(S(=O)(=O)C(F)(F)F)CC2
IC50 [1]: 0.183 µM
Ki [2]: 0.125 µM

C1=C(CC2=NCCN2)CCc2ccccc21 [NAPAMEZOLE]
IC50 [1]: 0.887 µM
Ki [2]: 0.00417 µM
